From patent US20190083462A1, “PREVENTION OF NSAID ENTEROPATHY WITH MICROBIOTA-DERIVED TRYPTOPHAN-METABOLITE” (THE TEXAS A&M UNIVERSITY SYSTEM, priority 2016, published 2019)

What was measured:
[1] = test system: intestinal epithelial cells; details: cited from earlier work
[2] = test system: fecal tryptophan metabolites; test: Fecal tryptophan metabolites by LC-MS; type: in vivo, mice
From the text: (§1) Eight- to 10-week-old specific-pathogen-free C57BL/6J mice were purchased and allowed to acclimate for 2 weeks. Mice were fed standardized laboratory rodent diet and sterile water ad libitum. Mice were randomly divided into the following 4 groups (n=5 mice/group): 1) NSAID (indomethacin); 2) indole; 3) NSAID+indole; and, 4) untreated controls. Mice were then rehoused on the basis of treatment group assignment, with 5 animals/group-cage. To induce NSAID enteropathy, mice in group 1 were gavaged once daily with indomethacin (5 mg/kg; for 7 days; Sigma Aldrich, St. Louis, Mo.) dissolved in dimethylysulfoxide (DMSO) (Sigma Aldrich, St. Louis, Mo.) and further diluted in phosphate buffered saline (PBS). Mice in group 2 received indole by gavage (20 mg/kg; once daily for 7 days; Sigma Aldrich, St. Louis, Mo.) dissolved in sterile water warmed to 55° C. Mice in group 3 received indole co-administered with indomethacin by gavage at the dosages described above. All mice were gavaged with equal volumes (200 μL) and equal concentrations of DMSO (0.001%).
Feces were collected daily by placing individual animals in sterile plastic cups that were RNase- and DNase-free until they passed feces. The mice were immediately returned to their home cages and the feces immediately flash frozen at −80° C. All animals were euthanized via CO2 asphyxiation on day 8 (i.e., after 7 days of treatment). The small intestine was harvested, opened longitudinally, rinsed with ice-cold PBS, and the distal ⅓ of the intestinal mucosa was scraped for tissue gene expression analysis. The remaining small intestine was fixed in 4% paraformaldehyde, Swiss-rolled, paraffin-embedded, and stained with hematoxylin and eosin. The spleen and mesenteric lymph nodes (MLN) were harvested, and immediately placed in ice cold RPMI-1640-c+10% fetal calf serum (FCS: Life Technologies, Carlsbad, Calif.), homogenized, and prepared as a single cell suspension for flow cytometric analysis as previously described (Wang N, Strugnell R, Wijburg O, Brodnicki T. Measuring bacterial load and immune responses in mice infected with Listeria monocytogenes. Journal of Visualized Experiments: JoVE 2011).
Metabolites from the fecal contents were extracted using a solvent-based method as previously described (Sridharan G V, Choi K, Klemashevich C, Wu C, Prabakaran D, Pan L B, Steinmeyer S, Mueller C, Yousofshahi M, Alaniz R C, et al. Prediction and quantification of bioactive microbiota metabolites in the mouse gut. Nature Communications 2014; 5:5492). Briefly, fecal pellets were homogenized using a homogenizer (Omni International) with equal volume of cold methanol and half volume of chloroform. The samples were then centrifuged at 10,000 g at 4° C. (Thermo Fisher Scientific) for 10 min. Supernatant was passed through a 70-μm sterile nylon cell strainer (Falcon) and 0.6 ml of ice cold water was added. The samples were vortex and centrifuged again at 10,000 g for 5 minutes. The upper phase and lower phase were collected and 400 μl of upper phase was dried to a pellet using a vacufuge (Eppendorf, Hauppauge, N.Y.), and then reconstituted in 50 μl of methanol/water (1:1, v/v). The samples were stored at −80° C. until analysis. Tryptophan metabolites in the samples were detected and quantified on a triple quadrupole linear ion trap mass spectrometer (3200 QTRAP, AB SCIEX, Foster City, Calif.) coupled to a binary pump HPLC (Prominence LC-20, Shimazu, Concord, Ontario, Canada).

[3] = test system: small intestinal mucosa; test: RNA sequencing (RNA-Seq) of the distal small intestinal mucosa; type: in vivo, mice; details: indole co-administered with NSAID; degree of up-regulation vs control mice
From the text: as §1
Feces were collected daily by placing individual animals in sterile plastic cups that were RNase- and DNase-free until they passed feces. The mice were immediately returned to their home cages and the feces immediately flash frozen at −80° C. […]
RNA was extracted from the mucosal scrapings using an RNeasy mini kit (QIAGEN, Redwood City, Calif.) following the manufacturer's instructions and including on-column DNase treatment. RNA quantity was determined using a Nanodrop spectrophotometer (Fisher Thermoscientific) and the quality was assessed using the Nano6000 chip on a Bioanalyzer 2100(Agilent Technologies). […] Differentially expressed genes were determined using EdgeR based on the matrix of gene counts (Robinson M D, McCarthy D J, Smyth G K. edgeR: a Bioconductor package for differential expression analysis of digital gene expression data. Bioinformatics (Oxford, England) 2010; 26:139-40). Gene lists were analyzed through use of QIAGEN's Ingenuity® Pathway Analysis (IPA, QIAGEN, Redwood City, Calif. http://www.qiagen.com/ingenuity). […]

[4] = test system: C57BL/6J mice; test: Histology and small intestinal morphometric measurements; type: in vivo; details: Swiss-rolled H & E stained small intestinal sections, n=5/group
Procedure: Eight- to 10-week-old specific-pathogen-free C57BL/6J mice were purchased and allowed to acclimate for 2 weeks. Mice were fed standardized laboratory rodent diet and sterile water ad libitum. […] Mice were then rehoused on the basis of treatment group assignment, with 5 animals/group-cage. To induce NSAID enteropathy, mice in group 1 were gavaged once daily with indomethacin (5 mg/kg; for 7 days; Sigma Aldrich, St. Louis, Mo.) dissolved in dimethylysulfoxide (DMSO) (Sigma Aldrich, St. Louis, Mo.) and further diluted in phosphate buffered saline (PBS). […] All mice were gavaged with equal volumes (200 μL) and equal concentrations of DMSO (0.001%).
The slides were scored as previously described for intestinal inflammation (Jia Q, Lupton J R, Smith R, Weeks B R, Callaway E, Davidson L A, Kim W, Fan Y Y, Yang P, Newman R A, et al. Reduced colitis-associated colon cancer in Fat-1 (n-3 fatty acid desaturase) transgenic mice. Cancer Research 2008; 68:3985-91). Briefly, mucosal injury was determined by the following parameters scored from 0 (no evidence) to 3 (marked): mucosal ulceration, mucosal erosion, and presence of squamified epithelium. Inflammatory changes were scored similarly based on the following parameters: lymphocytic infiltration, plasma cell infiltration, and neutrophilic infiltration. Finally, an overall evidence of injury score was used to document total injury graded from 0 (none) to 4 (marked). Morphological parameters were obtained from digitally scanned slides using SPOT vr 5.0 software. Three sets of measurements from 3 separate sections were recorded for each animal by an observer blinded to treatment group. Measurements consisted of villus height, crypt depth, and submucosal mural thickness.

[5] = test system: fecal microbiota; test: Fecal microbiota 16S rRNA sequencing (ANOSIM, SIMPER); type: in vivo, mice; details: for mean % abundance: day 7 feces
[6] = unweighted Unifrac distance metric, day 7

c1ccc2[nH]ccc2c1 [Indole, indole]
NF-κB signaling [1]: inhibit | anti-inflammatory effects and expression of genes associated with tight cell junctions ([1]; in vitro, earlier work of the inventors): has anti-inflammatory effects on intestinal epithelial cells and upregulates expression of genes associated with tight cell junctions | Magnitude of change in fecal concentration between Days 0 and 7 ([2]; Indole, group effect ↑): 5.3 | fecal indole concentrations relative to controls ([2]; feces): significantly more indole | transcription of pro-inflammatory cytokines (IL-1α, IL-1β, TNF, IL-6) and chemokines (CXCL1, CXCL3, CXCL2, CXCL5, CCL2, CCL7) [3]: not significantly different than control mice | microscopic pathology scores [4]: not different | abundance of members of the phyla Firmicutes and Bacteroidetes ([5]; fecal 16S rRNA sequences, Day 0 vs Day 7): no significant difference | mean % abundance ([5]; phylum Unassigned, Other): 1.90E−03% | mean % abundance ([5]; phylum k_Bacteria, Other): 3.81E−03% | mean % abundance ([5]; phylum k_Bacteria, p_Acidobacteria): 0% | mean % abundance ([5]; phylum k_Bacteria, p_Actinobacteria): 0.0381% | mean % abundance ([5]; phylum k_Bacteria, p_Bacteroidetes): 24.6% | mean % abundance ([5]; phylum k_Bacteria, p_Cyanobacteria): 9.51E−03% | mean % abundance ([5]; phylum k_Bacteria, p_Firmicutes): 74.7% | mean % abundance ([5]; phylum k_Bacteria, p_Proteobacteria): 0.0285% | mean % abundance ([5]; phylum k_Bacteria, p_Tenericutes): 0.656% | mean % abundance ([5]; phylum k_Bacteria, p_Verrucomicrobia): 1.90E−03% | Pairwise ANOSIM R-value vs Control [5, 6]: 0.2 | Pairwise ANOSIM R-value vs NSAID [5, 6]: 0.2615 | Pairwise ANOSIM R-value vs NSAID + Indole [5, 6]: 0.1938
